ChEMBL document CHEMBL3351417, “Thiophene-3-carboxamide analogue of annonaceous acetogenins as antitumor drug lead” (Eur J Med Chem, 2014)
Active and inactive are the calls of the source. The calls are words filed in the database; no cut-off is given here.

Experiments:
[1] = Growth inhibition of human HBC5 cells after 48 hrs by sulforhodamine B colorimetric assay; format: functional; settings: HBC5, 48 h
[2] = Growth inhibition of human RXF631L cells after 48 hrs by sulforhodamine B colorimetric assay; format: functional; settings: RXF 631, 48 h
[3] = Growth inhibition of human MKN28 cells after 48 hrs by sulforhodamine B colorimetric assay; format: functional; settings: MKN-28, 48 h
[4] = Growth inhibition of human MKN45 cells after 48 hrs by sulforhodamine B colorimetric assay; format: functional; settings: MKN-45, 48 h
MDA-MB-231 = test: Growth inhibition of human MDA-MB-231 cells after 48 hrs by sulforhodamine B colorimetric assay; format: functional; settings: MDA-MB-231, 48 h
[5] = Growth inhibition of human DMS114 cells after 48 hrs by sulforhodamine B colorimetric assay; format: functional; settings: DMS-114, 48 h
[6] = Growth inhibition of human SF539 cells after 48 hrs by sulforhodamine B colorimetric assay; format: functional; settings: SF-539, 48 h
MCF7 = test: Growth inhibition of human MCF7 cells after 48 hrs by sulforhodamine B colorimetric assay; format: functional; settings: MCF7, 48 h
KM12 = test: Growth inhibition of human KM12 cells after 48 hrs by sulforhodamine B colorimetric assay; format: functional; settings: KM12, 48 h
St-4 = test: Growth inhibition of human St-4 cells after 48 hrs by sulforhodamine B colorimetric assay; format: functional; settings: St-4, 48 h
NCI-H460 = test: Growth inhibition of human NCI-H460 cells after 48 hrs by sulforhodamine B colorimetric assay; format: functional; settings: NCI-H460, 48 h
SK-OV-3 = test: Growth inhibition of human SKOV3 cells after 48 hrs by sulforhodamine B colorimetric assay; format: functional; settings: SK-OV-3, 48 h
[7] = Growth inhibition of human OVCAR5 cells after 48 hrs by sulforhodamine B colorimetric assay; format: functional; settings: OVCAR-5, 48 h
[8] = Growth inhibition of human HCC2998 cells after 48 hrs by sulforhodamine B colorimetric assay; format: functional; settings: HCC 2998, 48 h
SF-268 = test: Growth inhibition of human SF268 cells after 48 hrs by sulforhodamine B colorimetric assay; format: functional; settings: SF-268, 48 h
[9] = Growth inhibition of human SF295 cells after 48 hrs by sulforhodamine B colorimetric assay; format: functional; settings: SF-295, 48 h
A549 = test: Growth inhibition of human A549 cells after 48 hrs by sulforhodamine B colorimetric assay; format: functional; settings: A549, 48 h
NCI-H226 = test: Growth inhibition of human NCI-H226 cells after 48 hrs by sulforhodamine B colorimetric assay; format: functional; settings: NCI-H226, 48 h
[10] = Growth inhibition of human LOXIMVI cells after 48 hrs by sulforhodamine B colorimetric assay; format: functional; settings: LOX IMVI
[11] = Growth inhibition of human OVCAR4 cells after 48 hrs by sulforhodamine B colorimetric assay; format: functional; settings: OVCAR-4, 48 h
[12] = Growth inhibition of human DMS273 cells after 48 hrs by sulforhodamine B colorimetric assay; format: functional; settings: DMS-273, 48 h
[13] = Growth inhibition of human MKN74 cells after 48 hrs by sulforhodamine B colorimetric assay; format: functional; settings: MKN-74, 48 h
NCI-H23 [14] = test: Antitumor activity against human NCI-H23 cells xenografted in mouse assessed as average tumor size on day 16 at 100 mg/kg, ip on day 0 and day 6 relative to control mouse; format: functional; settings: route intraperitoneal
[15] = Growth inhibition of human MKN1 cells after 48 hrs by sulforhodamine B colorimetric assay; format: functional; settings: MKN-1, 48 h
[16] = Growth inhibition of human BSY1 cells after 48 hrs by sulforhodamine B colorimetric assay; format: functional; settings: BSY-1, 48 h
[17] = Growth inhibition of human PC3 cells after 48 hrs by sulforhodamine B colorimetric assay; format: functional; settings: PC-3, 48 h
[18] = Growth inhibition of human OVCAR8 cells after 48 hrs by sulforhodamine B colorimetric assay; format: functional; settings: OVCAR-8, 48 h
[19] = Growth inhibition of human HBC4 cells after 48 hrs by sulforhodamine B colorimetric assay; format: functional; settings: HBC4, 48 h
[20] = Growth inhibition of human MKN7 cells after 48 hrs by sulforhodamine B colorimetric assay; format: functional; settings: MKN-7, 48 h
ACHN = test: Growth inhibition of human ACHN cells after 48 hrs by sulforhodamine B colorimetric assay; format: functional
[21] = Growth inhibition of human OVCAR3 cells after 48 hrs by sulforhodamine B colorimetric assay; format: functional; settings: OVCAR-3, 48 h
[22] = Growth inhibition of human HCT15 cells after 48 hrs by sulforhodamine B colorimetric assay; format: functional; settings: HCT-15, 48 h
DU-145 = test: Growth inhibition of human DU145 cells after 48 hrs by sulforhodamine B colorimetric assay; format: functional; settings: DU-145, 48 h
NCI-H23 [23] = test: Growth inhibition of human NCI-H23 cells after 48 hrs by sulforhodamine B colorimetric assay; format: functional; settings: NCI-H23, 48 h
NCI-H23 [24] = test: Antitumor activity against human NCI-H23 cells xenografted in mouse assessed as inhibition of tumor growth on day 16 at 100 mg/kg, ip on day 0 and day 6; format: functional, organism-based; set-up: dose 100 mg/kg
[25] = Growth inhibition of human HCT116 cells after 48 hrs by sulforhodamine B colorimetric assay; format: functional; settings: HCT-116, 48 h
NCI-H522 = test: Growth inhibition of human NCI-H522 cells after 48 hrs by sulforhodamine B colorimetric assay; format: functional; settings: NCI-H522, 48 h
[26] = Growth inhibition of human SNB78 cells after 48 hrs by sulforhodamine B colorimetric assay; format: functional; settings: SNB-78, 48 h
U-251 = test: Growth inhibition of human U251 cells after 48 hrs by sulforhodamine B colorimetric assay; format: functional; settings: U-251, 48 h
HT-29 = test: Growth inhibition of human HT-29 cells after 48 hrs by sulforhodamine B colorimetric assay; format: functional; settings: HT-29, 48 h
SNB-75 = test: Growth inhibition of human SNB75 cells after 48 hrs by sulforhodamine B colorimetric assay; format: functional; settings: SNB-75, 48 h

CCCCCCCCCCCC[C@@H](O)[C@H]1CC[C@H]([C@H](O)CCCCCCCCCCNC(=O)c2ccsc2)O1
GI50 [1]: 2.09 µM
GI50 [2]: > 100 µM
GI50 [3]: 0.575 µM
GI50 [4]: 3.72 µM
GI50 (MDA-MB-231): 4.47 µM
GI50 [5]: 0.17 µM
GI50 [6]: > 100 µM
GI50 (MCF7): 2 µM
GI50 (KM12): 3.02 µM
GI50 (St-4): 1.7 µM
GI50 (NCI-H460): 4.9 µM
GI50 (SK-OV-3): > 100 µM
GI50 [7]: 2.69 µM
GI50 [8]: 2.19 µM
GI50 (SF-268): > 100 µM
GI50 [9]: 1 µM
GI50 (A549): > 100 µM
GI50 (NCI-H226): 2.4 µM
GI50 [10]: 1.51 µM
GI50 [11]: 1.7 µM
GI50 [12]: 2 µM
GI50 [13]: 1.51 µM
Activity (NCI-H23 [14]): 16%
GI50 [15]: 2.29 µM
GI50 [16]: 3.02 µM
GI50 [17]: 1.7 µM
GI50 [18]: 1.91 µM
GI50 [19]: > 100 µM
GI50 [20]: 0.17 µM
GI50 (ACHN): 3.89 µM
GI50 [21]: 1.7 µM
GI50 [22]: 38 µM
GI50 (DU-145): 2.19 µM
GI50 (NCI-H23 [23]): 0.2 µM
inhibition (NCI-H23 [24]): Active
GI50 [25]: 1.29 µM
GI50 (NCI-H522): 1 µM
GI50 [26]: > 100 µM
GI50 (U-251): > 100 µM
GI50 (HT-29): 1.91 µM
GI50 (SNB-75): 2.82 µM

CCCCCCCCCCCC[C@@H](O)[C@H]1CC[C@H]([C@H](O)CCCCCCCCCCNC(=O)c2ccco2)O1
GI50 [1]: > 100 µM
GI50 [2]: > 100 µM
GI50 [3]: 0.617 µM
GI50 [4]: > 100 µM
GI50 (MDA-MB-231): > 100 µM
GI50 [5]: 0.282 µM
GI50 [6]: 81.3 µM
GI50 (MCF7): > 100 µM
GI50 (KM12): > 100 µM
GI50 (St-4): > 100 µM
GI50 (NCI-H460): 18.2 µM
GI50 (SK-OV-3): > 100 µM
GI50 [7]: > 100 µM
GI50 [8]: > 100 µM
GI50 (SF-268): > 100 µM
GI50 [9]: 33.9 µM
GI50 (A549): > 100 µM
GI50 (NCI-H226): 97.7 µM
GI50 [10]: 17 µM
GI50 [11]: 15.8 µM
GI50 [12]: 39.8 µM
GI50 [13]: 1.7 µM
GI50 [15]: > 100 µM
GI50 [16]: 0.49 µM
GI50 [17]: > 100 µM
GI50 [18]: > 100 µM
GI50 [19]: > 100 µM
GI50 [20]: 0.832 µM
GI50 (ACHN): > 100 µM
GI50 [21]: > 100 µM
GI50 [22]: > 100 µM
GI50 (DU-145): > 100 µM
GI50 (NCI-H23 [23]): 12.9 µM
GI50 [25]: 7.76 µM
GI50 (NCI-H522): 18.2 µM
GI50 [26]: > 100 µM
GI50 (U-251): > 100 µM
GI50 (HT-29): > 100 µM
GI50 (SNB-75): > 100 µM

CCCCCCCCCCCC[C@@H](O)[C@H]1CC[C@H]([C@H](O)CCCCCCCCCCCCC2=C[C@H](C)OC2=O)O1 [REL-SOLAMIN]
GI50 [1]: > 100 µM
GI50 [2]: > 100 µM
GI50 [4]: > 100 µM
GI50 (MDA-MB-231): > 100 µM
GI50 [6]: > 100 µM
GI50 (KM12): > 100 µM
GI50 (St-4): > 100 µM
GI50 (NCI-H460): > 100 µM
GI50 (SK-OV-3): > 100 µM
GI50 [7]: > 100 µM
GI50 [8]: > 100 µM
GI50 (SF-268): > 100 µM
GI50 [9]: 39.8 µM
GI50 (A549): > 100 µM
GI50 (NCI-H226): > 100 µM
GI50 [11]: > 100 µM
GI50 [12]: > 100 µM
GI50 [13]: > 100 µM
GI50 [15]: > 100 µM
GI50 [16]: > 100 µM
GI50 [17]: > 100 µM
GI50 [18]: > 100 µM
GI50 [19]: > 100 µM
GI50 (ACHN): > 100 µM
GI50 [21]: > 100 µM
GI50 [22]: > 100 µM
GI50 (DU-145): > 100 µM
GI50 [25]: > 100 µM
GI50 [26]: > 100 µM
GI50 (U-251): > 100 µM
GI50 (HT-29): > 100 µM
GI50 (SNB-75): > 100 µM

CCCCCCCCCCCC[C@@H](O)[C@H]1CC[C@H]([C@H](O)CCCCCCCCCCNC(=O)c2cccs2)O1
GI50 [1]: 3.24 µM
GI50 [2]: 3.24 µM
GI50 [3]: 0.363 µM
GI50 [4]: 3.31 µM
GI50 (MDA-MB-231): 2.57 µM
GI50 [5]: 0.282 µM
GI50 [6]: 17 µM
GI50 (MCF7): 2.19 µM
GI50 (KM12): 3.09 µM
GI50 (St-4): 1.82 µM
GI50 (NCI-H460): 2.29 µM
GI50 (SK-OV-3): 28.8 µM
GI50 [7]: 2.51 µM
GI50 [8]: 2 µM
GI50 (SF-268): 3.98 µM
GI50 [9]: 1.41 µM
GI50 (A549): 3.72 µM
GI50 (NCI-H226): 2.09 µM
GI50 [10]: 1.29 µM
GI50 [11]: 1.82 µM
GI50 [12]: 1.82 µM
GI50 [13]: 1.51 µM
GI50 [15]: 1.82 µM
GI50 [16]: 18.2 µM
GI50 [17]: 2.29 µM
GI50 [18]: 3.02 µM
GI50 [19]: 3.39 µM
GI50 [20]: 0.269 µM
GI50 (ACHN): 2.57 µM
GI50 [21]: 0.0427 µM
GI50 [22]: 5.75 µM
GI50 (DU-145): 2.69 µM
GI50 (NCI-H23 [23]): 0.676 µM
GI50 [25]: 1.29 µM
GI50 (NCI-H522): 1.1 µM
GI50 [26]: 2.29 µM
GI50 (U-251): 2 µM
GI50 (HT-29): 2.19 µM
GI50 (SNB-75): 3.39 µM
